Laboratory results reported in ChEMBL document CHEMBL5390237, “Discovery of Selective Histone Deacetylase 1 and 2 Inhibitors: Screening of a Focused Library Constructed by Click Chemistry, Kinetic Binding Analysis, and Biological Evaluation” (J Med Chem, 2023).

Each compound was assayed against T1, Histone deacetylase 2 (Homo sapiens, UniProt Q92769) (assay: Inhibition of full-length recombinant human C-terminal GST tagged HDAC2 expressed in Sf9 insect cells using aminoluciferin peptide substrate at 100 nM preincubated for 3 hrs followed by substrate addition and measured after 30 mins by HDAC-Glo I/II chemiluminescence assay). Conditions: time 3.5 hrs.
T1 sequence (Q92769 whole entry): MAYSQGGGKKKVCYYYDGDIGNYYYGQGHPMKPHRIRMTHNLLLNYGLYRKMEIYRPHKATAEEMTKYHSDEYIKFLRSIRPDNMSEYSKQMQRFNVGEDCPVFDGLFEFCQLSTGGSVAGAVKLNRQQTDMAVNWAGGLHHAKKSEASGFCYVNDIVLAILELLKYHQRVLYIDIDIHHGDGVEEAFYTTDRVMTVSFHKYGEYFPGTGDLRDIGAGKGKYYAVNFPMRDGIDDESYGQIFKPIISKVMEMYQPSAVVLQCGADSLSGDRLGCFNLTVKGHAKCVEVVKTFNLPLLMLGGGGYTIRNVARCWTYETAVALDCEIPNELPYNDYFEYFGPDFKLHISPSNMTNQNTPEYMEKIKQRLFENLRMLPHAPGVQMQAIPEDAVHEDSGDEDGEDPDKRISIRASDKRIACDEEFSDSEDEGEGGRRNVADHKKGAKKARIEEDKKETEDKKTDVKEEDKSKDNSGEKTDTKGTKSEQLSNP

inhibition | Structure (SMILES)
0% | CCc1ccc(Cn2cc(-c3cccc(C(=O)Nc4cc(-c5cccs5)ccc4N)c3)nn2)cc1
0% | Nc1ccc(-c2cccs2)cc1NC(=O)c1cn(CCc2ccsc2)nn1
20% | Nc1ccc(-c2cccs2)cc1NC(=O)c1cn(Cc2nc3ccccc3[nH]2)nn1
21% | COc1ccc(CCn2cc(C(=O)Nc3cc(-c4cccs4)ccc3N)nn2)cc1
22% | Nc1ccc(-c2cccs2)cc1NC(=O)c1ccc(-c2cn(CC(=O)c3ccccc3)nn2)s1
17% | Nc1ccc(-c2cccs2)cc1NC(=O)c1cn(Cc2ccc3ccccc3c2)nn1
22% | Nc1ccc(-c2cccs2)cc1NC(=O)CCc1cn(Cc2ccc3ccccc3n2)nn1
27% | Nc1ccc(-c2cccs2)cc1NC(=O)CCc1cn(Cc2cc3ccccc3s2)nn1
0% | Nc1ccc(-c2cccs2)cc1NC(=O)c1ccc(-c2cn(Cc3cccc(C(=O)O)c3)nn2)cc1
7% | Nc1ccc(-c2cccs2)cc1NC(=O)CCc1cn(CCCCCc2ccccc2)nn1
14% | Nc1ccc(-c2cccs2)cc1NC(=O)c1cn(Cc2ccc(OC(F)(F)F)cc2)nn1
23% | Nc1ccc(-c2cccs2)cc1NC(=O)c1ccc(-c2cn(CC(=O)Nc3ccc(F)cc3)nn2)s1
0% | Nc1ccc(-c2ccsc2)cc1NC(=O)CCc1cn(CCN2CCOCC2)nn1
18% | Nc1ccc(-c2ccsc2)cc1NC(=O)c1cn(CCN2CCc3ccccc3C2)nn1
0% | Nc1ccc(-c2cccs2)cc1NC(=O)c1cn(CCCCCC(=O)O)nn1
69% | Nc1ccc(-c2cccs2)cc1NC(=O)c1ccc(-c2cn(CCN3CCOCC3)nn2)s1
63% | Nc1ccc(-c2cccs2)cc1NC(=O)c1ccc(-c2cn(Cc3nc4ccccc4[nH]3)nn2)s1
0% | Nc1ccc(-c2cccs2)cc1NC(=O)c1ccc(-c2cn(CCc3ccccc3C(F)(F)F)nn2)s1
10% | Nc1ccc(-c2cccs2)cc1NC(=O)CCc1cn(CCCc2ccccc2)nn1
61% | Nc1ccc(-c2cccs2)cc1NC(=O)c1ccc(-c2cn(Cc3ccc(C(=O)O)cc3)nn2)s1

The next lines start with the compound.

Structure (SMILES) | inhibition
Nc1ccc(-c2ccccc2)cc1NC(=O)c1cn(CCc2ccccc2[N+](=O)[O-])nn1 | 0%
Nc1ccc(-c2ccc(F)cc2)cc1NC(=O)c1cn(-c2ccccc2-c2ccccc2)nn1 | 19%
COc1ccc(Cn2cc(C(=O)Nc3cc(-c4ccc(F)cc4)ccc3N)nn2)cc1 | 19%
Nc1ccc(-c2ccccc2)cc1NC(=O)c1cn(-c2ccc(O)cc2)nn1 | 0%
Nc1ccc(-c2cccnc2)cc1NC(=O)CCc1cn(CCc2cccc([N+](=O)[O-])c2)nn1 | 15%
Nc1ccc(-c2ccccc2)cc1NC(=O)c1cn(-c2cccc3ccccc23)nn1 | 0%
Nc1ccc(-c2cccs2)cc1NC(=O)CCc1cn(CC(=O)Nc2ccc(F)cc2)nn1 | 30%
Nc1ccc(-c2cccnc2)cc1NC(=O)CCc1cn(CCc2cccc(F)c2)nn1 | 13%
Nc1ccc(-c2ccc(F)cc2)cc1NC(=O)c1cn(-c2ccc([N+](=O)[O-])cc2)nn1 | 8%
Nc1ccc(-c2ccc(F)cc2)cc1NC(=O)CCc1cn(Cc2ccc3ccccc3c2)nn1 | 15%
COc1ccc(Cn2cc(C(=O)Nc3cc(-c4ccccc4)ccc3N)nn2)cc1 | 6%
Nc1ccc(-c2ccc(F)cc2)cc1NC(=O)c1cn(Cc2cc3ccccc3s2)nn1 | 7%
Cc1cccc(CCn2cc(CCC(=O)Nc3cc(-c4ccc(F)cc4)ccc3N)nn2)c1 | 36%
CCc1ccc(Cn2cc(C(=O)Nc3cc(-c4ccsc4)ccc3N)nn2)cc1 | 0%
Nc1ccc(-c2ccsc2)cc1NC(=O)c1cn(CC2CCCCC2)nn1 | 0%
Nc1ccc(-c2ccc(F)cc2)cc1NC(=O)CCc1cn(Cc2cccc3ccccc23)nn1 | 14%
Nc1ccc(-c2cccs2)cc1NC(=O)CCc1cn(CCCCC(=O)O)nn1 | 2%
Nc1ccc(-c2ccccc2)cc1NC(=O)c1cn(CCCCCc2ccccc2)nn1 | 0%
Nc1ccc(-c2ccc(F)cc2)cc1NC(=O)c1cn(-c2ccc(O)cc2)nn1 | 15%
Nc1ccc(-c2ccccc2)cc1NC(=O)CCc1cn(CCc2ccc(C(F)(F)F)cc2)nn1 | 0%
Nc1ccc(-c2ccsc2)cc1NC(=O)c1cn(CCc2ccc(C(F)(F)F)cc2)nn1 | 0%
Nc1ccc(-c2ccsc2)cc1NC(=O)c1cn(CCC2CCCCC2)nn1 | 0%
Nc1ccc(-c2ccccc2)cc1NC(=O)CCc1cn(-c2ccccc2-c2ccccc2)nn1 | 2%
Nc1ccc(-c2ccccc2)cc1NC(=O)CCc1cn(CCCCCC(=O)O)nn1 | 0%
Nc1ccc(-c2ccc(F)cc2)cc1NC(=O)c1cn(Cc2ccc(OC(F)(F)F)cc2)nn1 | 0%
Nc1ccc(-n2cc(C(=O)Nc3cc(-c4ccc(F)cc4)ccc3N)nn2)cc1 | 42%
Nc1ccc(-c2cccs2)cc1NC(=O)CCc1cn(CCCCCCCC(=O)O)nn1 | 4%
Nc1ccc(-c2ccc(F)cc2)cc1NC(=O)CCc1cn(CCc2ccccc2)nn1 | 37%
Nc1ccc(-c2ccsc2)cc1NC(=O)CCc1cn(CCc2ccc(F)cc2)nn1 | 21%
Cc1ccc(-n2cc(CCC(=O)Nc3cc(-c4ccccc4)ccc3N)nn2)cc1C | 0%

Each compound was assayed against T1, Histone deacetylase 2. Conditions: Sf9, time 60.0 min.

Structure (SMILES) | ka
Nc1ccccc1NC(=O)c1ccc(CNC(=O)OCc2cccnc2)cc1 | 7670 M⁻¹ s⁻¹
CC(=O)Nc1ccc(C(=O)Nc2cc(-c3cccs3)ccc2N)cc1 | 13300 M⁻¹ s⁻¹

Target: T1, Histone deacetylase 2
Conditions: Sf9, time 60.0 min
Remark: another data set of the same source

Structure (SMILES) | Kdiss
Nc1ccccc1NC(=O)c1ccc(CNC(=O)OCc2cccnc2)cc1 | 5e-05 s⁻¹
CC(=O)Nc1ccc(C(=O)Nc2cc(-c3cccs3)ccc2N)cc1 | 6.67e-05 s⁻¹
